Experimental data: publication doi:10.1101/2025.08.08.668114, “Structure-Activity Relationship Studies Towards Analogues of Pleconaril as Novel Enterovirus-D68 Capsid-Targeting Antivirals” (bioRxiv, 2025)
In brackets after ≈: the same amount, converted by molar mass. Where two headings read alike, the source gives them in different places.

Columns and labels:
[1] = Human microsomal stability; details: for microsomal CLint at 2 µM: human, pH 7.4
[2] = Mouse microsomal stability; details: pH 7.4
[3] = system: MDCKII cells transfected with human MDR1 (P-gp); details: dog, MDCK-MDR1
[4] = system: EV-D68; details: in-vitro; read-out: Published EV-D68 EC50; cited from earlier work
[5] = system: human pregnane-X receptor (PXR); parameters: method as in PMID 37327878; details: cited from earlier work
[6] = system: cytochrome P450 (CYP) enzyme; parameters: method as in PMID 12802751; details: after repeated dosing; cited from earlier work
[7] = in vitro; details: human
[8] = physchem; details: kinetic from dmso stock
[9] = system: P-gp (human MDR1); assay: in vitro; details: dog, MDCK-MDR1, MDCKII-MDR1 Papp A→B
[10] = LogD at pH 7.4, shake-flask method; details: for logD: pH 7.4
[11] = system: EV-D68 (strain US/MO/14-18949); assay: EV-D68 antiviral screening assay in RD cells
[12] = Kinetic aqueous solubility (KSOL), shake-flask method
[13] = system: cytochrome P450 (CYP) enzyme; parameters: method as in PMID 37327878; details: cited from earlier work
[14] = system: RD cells; assay: RD cell cytotoxicity by MTT assay on uninfected cells; details: geometric mean
[15] = system: MDCKII cells transfected with human MDR1 (P-gp); assay: MDCKII-MDR1 A→B permeability; details: apical to basolateral
[16] = system: P-gp (human MDR1); assay: MDCKII-MDR1 A→B permeability; details: dog, MDCK-MDR1
[17] = Enterovirus D, EVD68, RD, read-out: EC50 EV-D68, RD cells, strain US/MO/14-18949, geometric mean
[18] = Enterovirus D, EVD68, RD, read-out: EV-D68 pEC50, pEC50 = −log10(EC50) (converted), RD cells

SMILES	microsomal CLint at 2 µM ([2]; liver microsomes)	CC50 ([7]; RD cells, uninfected)	solubility kinetic [8]	Papp A→B [9]	logD [10]	EC50 [11, 17]	microsomal CLint at 2 µM ([1]; liver microsomes)	other results
Cc1cc(CCCOc2c(C)cc(-c3noc(C(F)(F)F)n3)cc2C)on1 [Compound 1, Pleconaril]	22 µL/min/mg	> 50 µM	18 µM (≈ 6.86 µg/mL)	1.4 ×10⁻⁶ cm/s	4.2	< 0.0295 µM	–	microsomal CLint at 2 µM ([1]; microsomes): 12 µL/min/mg; MDCKII-MDR1 Papp A→B [3]: 1.42 10^−6 cm s^−1; EC50 [4]: 0.43 µM; agonism of human PXR [5]: Neither 1 nor 2 are agonists; CYP induction (side effect) [6]: well-known side effect; EC50 ([11]; read-out: EC50 EV-D68, RD cells, strain US/MO/14-18949, geometric mean, listed as Pleconaril (1)): < 0.029 µM
Cc1cc(-c2noc(C(F)(F)F)n2)ccc1O[C@H]1CCN(c2cc(C(=O)N(C)C)no2)C1 [Compound 34]	41 µL/min/mg	> 50 µM	< 10 µM	2.5 ×10⁻⁶ cm/s	4.2	0.058 µM	22 µL/min/mg	EC50 [11, 18]: 0.0589 µM; fold more potent than 33 (EV-D68) ([11]; relative to enantiomer 33): 10 fold; Solubility, Kinetic (KSOL) [12]: 7 µM (≈ 3.16 µg/mL)
Cc1cc(-c2noc(C(F)(F)F)n2)ccc1Oc1cncc(-c2cc(C(=O)N(C)C)no2)c1 [Compound 32]	–	> 50 µM	–	–	–	4.35 µM	–	–
Cc1cc(-c2noc(C(F)(F)F)n2)ccc1OCCCc1nnc(C(F)(F)F)o1 [Compound 38]	–	> 50 µM	–	–	–	–	–	EC50 ([11]; Enterovirus D, EVD68, RD, read-out: EC50 EV-D68 (Table 4), RD cells, Table 4 head): 39.9 µM
Cc1cc(-c2noc(C(F)(F)F)n2)ccc1OCCCc1cc(C(=O)N(C)C)no1 [Compound 2, CP-11526092, reference compound]	24 µL/min/mg	> 42 µM	9 µM (≈ 3.82 µg/mL)	2.3 ×10⁻⁶ cm/s	≥ 4.5	0.043 µM	11 µL/min/mg	MDCKII-MDR1 Papp A→B [3]: 2.26 10^−6 cm s^−1; EC50 [4]: 0.042 µM; agonism of human PXR [5]: Neither 1 nor 2 are agonists; CYP induction according to in-vitro data [13]: still present; EC50 [11, 18]: 0.0437 µM; Lipophilic Cellular Efficiency (LipCellE) ([11]; cellular pEC50 − AlogP98): > 3; CC50 ([14]; listed as CP-11526092 (2)): > 50 µM
Cc1nc(-c2ccc(OCCCCCN3CCN(c4ccnc(N)c4)C3=O)cc2)no1 [Compound S-59, NLD-22]	–	–	–	–	–	–	–	CC50 [14]: > 25.6 µM
Cc1cc(-c2noc(C(F)(F)F)n2)ccc1O[C@@H]1CCN(c2cc(C(=O)N(C)C)no2)C1 [Compound 33]	38 µL/min/mg	> 50 µM	< 10 µM	4 ×10⁻⁶ cm/s	4.2	0.437 µM	24 µL/min/mg	Solubility, Kinetic (KSOL) [12]: 9 µM (≈ 4.06 µg/mL)
CN(C)C(=O)c1cc(CCCn2ccc3cc(-c4noc(C(F)(F)F)n4)ncc32)on1 [Compound 30]	29 µL/min/mg	> 100 µM	30 µM (≈ 13 µg/mL)	3.5 ×10⁻⁶ cm/s	3	8.43 µM	20 µL/min/mg	–
C#CCc1ccc(OCCCc2cc(C(=O)N(C)C)no2)cc1 [Compound 55]	–	–	198 µM (≈ 61.8 µg/mL)	–	3.1	–	–	EC50 [11, 18]: 0.617 µM
CN(C)C(=O)c1cc(-c2cccc(Oc3ccc(-c4noc(C(F)(F)F)n4)cc3)c2)on1 [Compound 31]	–	> 50 µM	–	–	–	4.87 µM	–	–
Nc1nc(-c2ccccc2)nc2[nH]nc(Nc3ccc(C(F)(F)F)cc3)c12 [Compound S-60, OBR-5-340, reference compound]	–	–	–	–	–	–	–	Clint HLM ([1]; human liver microsomes): < 10 µL/min/mg; MDCKII-MDR1 Papp A→B [15]: 1.8 10^−6 cm s^−1; LogD (pH 7.4) ([10]; pH 7.4, shake-flask): ≥ 4.5; EC50 ([11]; read-out: EC50 EV-D68, RD cells, strain US/MO/14-18949, geometric mean): 7.16 µM; CC50 [14]: > 50 µM; Solubility, Kinetic (KSOL) [12]: 2 µM (≈ 0.741 µg/mL)
CCOC(=O)c1ccc(OCCC2CCN(c3ccc(C)nn3)CC2)cc1 [Compound S-58, Pirodavir, reference compound]	–	–	–	–	–	0.277 µM	–	microsomal CLint at 2 µM ([1]; microsomes): 708 µL/min/mg; microsomal CLint at 2 µM ([2]; microsomes): 580 µL/min/mg; CC50 [7]: > 50 µM; Papp A→B [16]: 9 ×10⁻⁶ cm/s
Cc1cc(-c2noc(C(F)(F)F)n2)ccc1OCCNc1cc(C(=O)N(C)C)no1 [Compound 24]	–	> 50 µM	–	–	–	> 30.4 µM	–	–
CCO/N=C/c1ccc(OCCC2CCN(c3ccc(C)nn3)CC2)cc1 [Compound S-57, BTA-188]	–	–	–	–	–	–	–	CC50 [14]: > 50 µM
CN(C)C(=O)c1cc(CCCn2ccc3cc(C#N)ccc32)on1 [Compound 25]	–	> 50 µM	–	–	–	2.87 µM	–	–
CN(C)C(=O)c1cc(CCCn2ccc3cc(-c4noc(C(F)(F)F)n4)cnc32)on1 [Compound 29]	133 µL/min/mg	> 100 µM	28 µM (≈ 12.2 µg/mL)	15.5 ×10⁻⁶ cm/s	3.8	1.89 µM	30 µL/min/mg	–
